Assay [1] relates to A549. The assay can be described thus: Induction of apoptosis in human A549 cells harboring KRAS G12S mutant assessed as necrotic cells at 10 uM incubated for 24 hrs by Annexin V-FITC/PI staining based flow cytometric analysis (reference value: 0.16%). Format: functional. Background: Flow cytometry measures light scatter and fluorescence of single cells or particles in a stream.

For assay [2], the system named is A549. The experiment in a line: Induction of apoptosis in human A549 cells harboring KRAS G12S mutant assessed as increase in caspase3 protein level at 40 uM incubated for 24 hrs by Western blot analysis. Format: functional, cell-based. (In general: Immunoblotting shows a protein as a band on a membrane.)
Assay [3] deals with A549. The experiment in a line: Induction of apoptosis in human A549 cells harboring KRAS G12S mutant assessed as increase in bax protein level at 40 uM incubated for 24 hrs by Western blot analysis. The assay is classed as functional, cell-based.
The test system of assay [4] is GTPase KRas (Homo sapiens), P01116 [G12C]. The experiment in a line: Binding affinity to biotinylated N-terminal His6-tagged recombinant KRAS G12C mutant (unknown origin) assessed as dissociation constant by BLI method.
Chain of GTPase KRas (Homo sapiens), P01116 [G12C] (P01116 whole entry G12C): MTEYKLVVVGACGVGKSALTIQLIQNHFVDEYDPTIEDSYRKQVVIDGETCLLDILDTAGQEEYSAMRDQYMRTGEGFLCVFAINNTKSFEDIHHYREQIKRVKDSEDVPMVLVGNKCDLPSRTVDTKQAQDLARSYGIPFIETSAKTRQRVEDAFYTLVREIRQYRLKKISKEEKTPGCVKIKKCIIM
For assay [5] the test system is unchanged. The experiment in a line: Inhibition of mant-GDP bound N-terminal His6-tagged recombinant KRAS G12C mutant (unknown origin) by fluorescence based assay.
In assay [6] the test system is NCI-H358. The assay can be described thus: Induction of apoptosis in human NCI-H358 cells harboring KRAS G12C mutant assessed as viable cells at 10 uM incubated for 24 hrs by Annexin V-FITC/PI staining based flow cytometric analysis (reference value: 67.2%). Particulars: NCI-H358, 24 h, read-out: Activity. The assay is classed as functional.
The subject of assay [7] is NCI-H358. The experiment in a line: Induction of apoptosis in human NCI-H358 cells harboring KRAS G12C mutant assessed as early apoptotic cells at 20 uM incubated for 24 hrs by Annexin V-FITC/PI staining based flow cytometric analysis (reference value: 4.34%). Format: functional.
In assay [8] the test system is NCI-H358. The assay can be described thus: Induction of apoptosis in human NCI-H358 cells harboring KRAS G12C mutant assessed as necrotic cells at 10 uM incubated for 24 hrs by Annexin V-FITC/PI staining based flow cytometric analysis (reference value: 0.28%). Format: functional.
The subject of assay [9] is NCI-H358. The experiment in a line: Induction of apoptosis in human NCI-H358 cells harboring KRAS G12C mutant assessed as increase in caspase3 protein level at 40 uM incubated for 24 hrs by Western blot analysis. Format: functional, cell-based.
In assay [10] the test system is A549. The experiment in a line: Induction of apoptosis in human A549 cells harboring KRAS G12S mutant assessed as decrease in bcl2 protein level at 40 uM incubated for 24 hrs by Western blot analysis. Format: functional, cell-based.
The test system of assay [11] is NCI-H358. The assay can be described thus: Induction of apoptosis in human NCI-H358 cells harboring KRAS G12C mutant assessed as early apoptotic cells at 2.5 uM incubated for 24 hrs by Annexin V-FITC/PI staining based flow cytometric analysis (reference value: 4.34%). The assay is classed as functional.
Assay [12] relates to A549. The experiment in a line: Induction of cell cycle arrest in human A549 cells harboring KRAS G12S mutant assessed as reduction in CDK1 protein expression at 40 uM incubated for 24 hrs by Western blot analysis. The assay is classed as functional, cell-based.
Assay [13] concerns GTPase KRas (Homo sapiens), P01116 [G12C]. The experiment in a line: Binding affinity to biotinylated N-terminal His6-tagged recombinant KRAS G12C mutant (unknown origin) assessed as association constant by BLI method.
The subject of assay [14] is A549. The experiment in a line: Induction of apoptosis in human A549 cells harboring KRAS G12S mutant assessed as necrotic cells at 20 uM incubated for 24 hrs by Annexin V-FITC/PI staining based flow cytometric analysis (reference value: 0.16%). The assay is classed as functional.

One compound from ChEMBL document CHEMBL4373743, “Selective apoptosis-inducing activity of synthetic hydrocarbon-stapled SOS1 helix with d-amino acids in H358 cancer cells expressing KRASG12C” (Eur J Med Chem, 2020) can be followed below.

The source made the active and inactive calls. The rule behind the calls is not given here. Bridge positions count the residues as written; N and C are the ends. Square brackets hold non-standard residues; d marks the D form. Peptide text beside a SMILES is read from it. S5 = C=CCCC[C@](C)(N)C(=O)O

Take `CC[C@H](C)[C@H](NC(=O)CNC(=O)[C@H](Cc1ccccc1)NC(=O)[C@H](Cc1ccccc1)NC(=O)[C@H](CCCNC(=N)N)NC(=O)[C@H](CCCNC(=N)N)NC(C)=O)C(=O)N[C@@]1(C)CCC/C=C\CCC[C@@](C)(C(=O)N[C@@H](CC(C)C)C(=O)N[C@@H](CCCCN)C(=O)N[C@H](C(=O)N[C@@H](CCC(=O)O)C(=O)N[C@@H](CCC(=O)O)C(=O)NCC(=O)N[C@@H](CC(N)=O)C(=O)O)[C@@H](C)O)NC(=O)[C@H](CC(N)=O)NC(=O)[C@H](CC(=O)O)NC(=O)[C@H]([C@@H](C)O)NC(=O)[C@H](CC(C)C)NC(=O)[C@H](CC(=O)O)NC1=O` (Ac-RRFFGI[S5]DLTDN[S5]LKTEEGN-OH; staple (Z) 7-13): the Activity with A549 [1] was 0.5%; in the assay on NCI-H358 [7], 6.49%; in the assay with NCI-H358 [8], 0.26%; with NCI-H358 [11] it was 4.22%; in the assay on A549 [14], 0.33%. Further, the result with A549 [2], in the assay with A549 [3], in the assay on A549 [10] and in the assay on A549 [12] was inactive. For the same compound, in assay [4], the Kdiss came out at 6.37 ×10⁻³ /s. The inhibition entry in assay [5] was “Dose-dependent effect”. For the same compound, in the assay with NCI-H358 [6], the viability at 10 µM worked out at 52.5%. Also, the result with NCI-H358 [9] was Active. For the same compound, in assay [13], the Ka worked out at 7.3 ×10³ /M.s.
